What all share (assay type): cell-based
For experiment [1], the system named is human cancer cell line. Kind of experiment: Human cancer cell line activity compared with Dolastatin 10. As to conditions: R-dolaphenine (Doe) substitution. From the text:
A series of Dolastatin 10 chiral isomers has been documented (See: Pettit et al., J. Med. Chem., 1990, 33, 3132). More recently these experiments were extended to synthesis of R-Doe-isodolastatin 10. […] The amide molecular length was then examined, starting with benzylamine, phenethylamine and 3-phenyl-1-propylamine. Also studied was a systematic series of modifications at the dolaphenine position introducing a substituted nitrogen instead of a phenyl ring.

For experiment [2], the system named is SK-MEL-3. As to the kind of experiment: NCI human tumor cell line screen, melanoma SK-MEL-3. Particulars: for GI-50 / TGI: Human cancer cell; for LC-50: Human cancer cells. From the text:
(§1) Current research in the control of cancer in the United States is coordinated by the National Cancer Institute (NCI). To determine whether a substance has anti-cancer properties, the NCI has established a systematic protocol. This protocol, which involves the testing of a substance against a standard cell line panel containing 60 human tumor cell lines, has been verified and has been accepted in scientific circles. The protocol, and the established statistical means for analyzing the results obtained by the standardized testing are fully described in the literature. See: Body, Dr. Michael R., Principles & Practice of Oncology, PPO Updates, Volume 3, Number 10, October 1989, for an in depth description of the testing protocol; and Paull, K. D., "Display and Analysis of Patterns of Differential Activity of Drugs Against Human Tumor Cell Lines; Development of Mean Graph and COMPARE Algorithm", Journal of the National Cancer Institute Reports, Vol. 81, No. 14, Page 1088, Jul. 14, 1989 for a description of the methods of statistical analysis. Both of these references are incorporated herein by this reference thereto.
(§2) The extraordinary inhibition of cell growth shown by the tetrapeptide 6a-k against six major types of human cancer and against the murine P388 lymphocytic leukemia cell line has been presented in Table 1-2, below.

Experiment [3] relates to NCI-460. As to the kind of experiment: NCI human tumor cell line screen, Lung-NSC NCI-460. As to conditions: for GI-50 / TGI: Human cancer cell; for LC-50: Human cancer cells.
From the text: as §1, with “This protocol, which involves the testing of a substance against a standard cell line panel containing 60 human tumor cell lines, has been verified and has been accepted in scientific circles.” left out

In experiment [4] the test system is A498. As to the kind of experiment: NCI human tumor cell line screen, renal A498. Particulars: for GI-50 / TGI: Human cancer cell; for LC-50: Human cancer cells.
From the text: as §1, with “This protocol, which involves the testing of a substance against a standard cell line panel containing 60 human tumor cell lines, has been verified and has been accepted in scientific circles.” left out

For experiment [5], the system named is SF-295. As to the kind of experiment: NCI human tumor cell line screen, CNS SF-295. Particulars: for GI-50 / TGI: Human cancer cell; for LC-50: Human cancer cells.
From the text: as §1, §2

Experiment [6] concerns OVCAR-3. Kind of experiment: NCI human tumor cell line screen, ovarian OVCAR-3. As to conditions: for GI-50 / TGI: Human cancer cell; for LC-50: Human cancer cells.
From the text: as §1, with “This protocol, which involves the testing of a substance against a standard cell line panel containing 60 human tumor cell lines, has been verified and has been accepted in scientific circles.” left out

Experiment [7] has as its system KM20L2. Kind of experiment: NCI human tumor cell line screen, colon KM20L2. As to conditions: for GI-50 / TGI: Human cancer cell; for LC-50: Human cancer cells.
From the text: as §1, with “This protocol, which involves the testing of a substance against a standard cell line panel containing 60 human tumor cell lines, has been verified and has been accepted in scientific circles.” left out

Experiment [8] deals with P-388. As to the kind of experiment: Murine P388 lymphocytic leukemia cell growth inhibition. Particulars: Mouse leukemia cell P-388.
From the text: as §2

For the substance R-Doe-isodolastatin 10, the “human cancer cell line activity when compared with Dolastatin 10” value in experiment [1] is reported as “does not result in any significant difference”.
Regarding “[2S-[1[1R*(R*),2S*],2R*[1S*,2S*]]]-N,N-dimethyl-L-valyl-N-[2-methoxy-4-[2-[1-methoxy-2-methyl-3-oxo-3-[[2-(2-chlor-phenyl)-ethyl]amino]propyl]-1-pyrrolidinyl-1-(methylpropyl)-4-oxo butyl]-N-methyl-L-valineamide [Peptide 6g]”, the GI-50 in experiment [2], in experiment [3], in experiment [4], in experiment [5], in experiment [6] and in experiment [7] was under 0.000001 µg/mL throughout. In addition, the TGI was over 10 ng/mL in experiment [2]; 0.11 ng/mL in experiment [3]; 2 ng/mL in experiment [4]; over 10 ng/mL in experiment [5]; under 0.001 ng/mL in experiment [6]; 0.38 ng/mL in experiment [7]. In addition, the LC-50 in experiment [2], in experiment [3], in experiment [4], in experiment [5], in experiment [6] and in experiment [7] was over 0.01 µg/mL in each case. This substance yielded an ED-50 in experiment [8] of 0.000289 µg/mL.
For “[2S-[1[1R*(R*),2S*],2R*[1S*,2S*]]]-N,N-dimethyl-L-valyl-N-[2-methoxy-4-[2-[1-methoxy-2-methyl-3-oxo-3-[[2-(4-chlor-phenyl)-ethyl]amino]propyl]-1-pyrrolidinyl-1-(methylpropyl)-4-oxo butyl]-N-methyl-L-valineamide [Peptide 6c]”, the GI-50 in experiment [2] was under 0.000001 µg/mL; in experiment [3], under 0.000001 µg/mL; in experiment [4], 0.00062 µg/mL; in experiment [5], 0.000010 µg/mL; in experiment [6], under 0.000001 µg/mL; in experiment [7], under 0.000001 µg/mL. Further, the concentration for total growth inhibition (TGI) in experiment [2] was over 10 ng/mL; in experiment [3] it was 1.1 ng/mL; in experiment [4] it was over 10 ng/mL; in experiment [5], 1.9 ng/mL; in experiment [6], under 0.001 ng/mL; in experiment [7] it was 1.1 ng/mL. For the same substance, the LC-50 in experiment [2], in experiment [3], in experiment [4], in experiment [5], in experiment [6] and in experiment [7] was over 0.01 µg/mL each time. This substance also showed an ED-50 in experiment [8] of 0.00553 µg/mL.
Regarding “[2S-[1[1R*(R*),2S*],2R*[1S*,2S*]]]-N,N-dimethyl-L-valyl-N-[2-methoxy-4-[2-[1-methoxy-2-methyl-3-oxo-3-[[2-(4-nitro-phenyl)-ethyl]amino]propyl]-1-pyrrolidinyl-1-(methylpropyl)-4-oxo butyl]-N-methyl-L-valineamide [Peptide 6b]”, the GI-50 in experiment [2] worked out at 0.00012 µg/mL; in experiment [3], 0.00028 µg/mL; in experiment [4], 0.00064 µg/mL; in experiment [5], 0.00035 µg/mL; in experiment [6], 0.00024 µg/mL; in experiment [7], 0.0003 µg/mL. Besides, the TGI was 1.3 ng/mL in experiment [2]; 1.2 ng/mL in experiment [3]; over 10 ng/mL in experiment [4]; over 10 ng/mL in experiment [5]; 0.65 ng/mL in experiment [6]; 1.3 ng/mL in experiment [7]. The LC-50 in experiment [2], in experiment [3], in experiment [4], in experiment [5], in experiment [6] and in experiment [7] was over 0.01 µg/mL in each case. Also, the ED-50 in experiment [8] turned out to be 0.0459 µg/mL.
On to “[2S-[1[1R*(R*),2S],2R*[1S*,2S*]]]-N,N-dimethyl-L-valyl-N-[2-methoxy-4-[2-[1-methoxy-2-methyl-3-oxo-3-[[2-(3,4-dimethoxy-phenyl)-ethyl]amino]propyl]-1- pyrrolidinyl-1-(methylpropyl)-4-oxobutyl]-N-methyl-L-valineamide [Peptide 6a]”, for which the GI-50 in experiment [2] is 0.000018 µg/mL; in experiment [3], 0.000031 µg/mL; in experiment [4], 0.000016 µg/mL; in experiment [5], 0.000029 µg/mL; in experiment [6], 0.000007 µg/mL; in experiment [7], 0.000025 µg/mL. The TGI in experiment [2] was 0.058 ng/mL; in experiment [3] it was 0.094 ng/mL; in experiment [4], over 0.1 ng/mL; in experiment [5], 0.083 ng/mL; in experiment [6] it was 0.061 ng/mL; in experiment [7], 0.061 ng/mL. Besides, the LC-50 in experiment [2], in experiment [3], in experiment [4], in experiment [5], in experiment [6] and in experiment [7] was over 0.0001 µg/mL throughout. The ED-50 in experiment [8] came out at 0.0035 µg/mL.

By TGI is commonly meant the concentration at which net growth stops. Read a low TGI as greater sensitivity of the cells.
